Assay results published in patent publication US8993589B2, “Imidazopyridine derivatives which inhibit the secretion of gastric acid” (priority 2008, dated 2015).

System: acid secretion in female rats
Test: Inhibiting effect on acid secretion in female rats
Assay type: in vivo, rat (Sprague-Dawley
Conditions: rats administered 1 μmol/kg
Protocol: Inhibiting Effect on Acid Secretion in Female Rats
Female rats of the Sprague-Dawley strain were used. They were equipped with cannulated fistulae in the stomach (lumen) and the upper part of the duodenum, for collection of gastric secretions and administration of test substances, respectively. A recovery period of 14 days after surgery was allowed before testing commenced.
Before secretory tests, the animals were deprived of food but not water for 20 h. The stomach was repeatedly washed through the gastric cannula with tap water (+37° C.), and 6 ml Ringer-Glucose given subcutaneously. […] Gastric juice samples were titrated to pH 7.0 with NaOH, 0.1M, and acid output calculated as the product of titrant volume and concentration.
Further calculations were based on group mean responses from 4-6 rats. In the case of administration during stimulation, the acid output during the periods after administration of test substance or vehicle were expressed as fractional responses, setting the acid output in the 30-min period preceding administration to 1.0. Percentage inhibition was calculated from the fractional responses elicited by test compound and vehicle. In the case of administration before stimulation, percentage inhibition was calculated directly from acid output recorded after test compound and vehicle. […]

| SMILES | maximal inhibition of acid secretion [%] |
| --- | --- |
| Cc1cccc(C)c1CNc1cc(C(=O)NCCOC(=O)CCCC(=O)O)cn2c(C)c(C)nc12 [Example 1, 5-{2-[({8-[(2,6-dimethylbenzyl)amino]-2,3-dimethylimidazo[1,2-a]pyridin-6-yl}carbonyl)amino]ethoxy}-5-oxopentanoic acid] | 100 |
| Cc1cccc(C)c1CNc1cc(C(=O)NCCOC(=O)CCC(=O)O)cn2c(C)c(C)nc12 [Example 2, 4-{2-[({8-[(2,6-dimethylbenzyl)amino]-2,3-dimethylimidazo[1,2-a]pyridin-6-yl}carbonyl)amino]ethoxy}-4-oxobutanoic acid] | 70 |
